Assay type in all cases: cell-based
Data set [1] has as its system human platelets. Kind of data set: ATP secretion from dense granules, human platelets. The conditions noted are these: stimulus-activated human platelets pretreated with ML265. As for the experimental part: (§1) Platelet rich plasma (PRP) or washed platelets (2×10^8/ml) treated with vehicle (DMSO) or ML265 (50 and 100 μM) were stirred (1200 rpm) at 37° C. for 2 min in a whole blood/optical lumi-aggregometer (Chrono-log; model 700-2) before the addition of agonists (convulxin, collagen, thrombin, PAR4, TRAP (PAR1 agonist) or adenosine diphosphate [ADP]). Aggregation was measured as percent change in light transmission, where 100% refers to transmittance through the blank sample (PRP/Buffer). Platelet dense granule secretion was determined by measuring the release of ATP using luciferin-luciferase reagent. To examine the effect of ML265 on ATP secretion, washed platelets were pretreated with vehicle (DMSO) or ML265 (50 and 100 μM) for 10 minutes before stimulation with various agonists. ATP release was performed in a lumi-aggregometer (Chrono-log; model 700-2) at 37° C.

For data set [2], the system named is murine platelets. Briefly: In vitro platelet aggregation, mouse platelet-rich plasma. Conditions: convulxin, collagen, PAR4 and ADP, ML265 50 and 100 μM. As for the experimental part: as §1
The subject of data set [3] is human platelets. Briefly: Lactate measurement, human platelets. The conditions noted are these: human platelets stimulated with convulxin or thrombin; ML265 pre-treated (50 or 100 μM). As for the experimental part:
Washed platelets (5×10^8 platelets/mL) in DMEM (5 mM HEPES, 25 mM glucose, 1 mM pyruvate and 2 mM glutamine) were pre-treated with 50 or 100 μM of ML265 or vehicle (DMSO) for 10 mins and stimulated by convulxin (200 ng/ml) for 1 hr. Cells were centrifuged and supernatant was collected. Levels of L-lactate in supernatant were determined using a glycolysis cell based assay kit (Cayman; Item No. 600450) according to the manufacturer's instructions.

In data set [4] the test system is murine platelets. Kind of data set: Clot retraction, mouse platelet-rich plasma. Conditions: thrombin 0.25 U/ml, ML265 50 and 100 μM. Here is the method:
To measure thrombin-stimulated fibrin clot retraction PRP was treated with ML265 (50 and 100 μM) or vehicle control (DMSO) for 10 minutes. Tyrode buffer was added to test tubes, along with red blood cells, to allow visualization of the clot. This was followed by the addition of PRP. Clot formation was initiated by adding thrombin (final concentration 0.25 U/ml) to the test tubes. Photographs were taken every 15 minutes and the assay was terminated after 60 minutes at which time the clot in the vehicle-treated samples were seen to have retracted completely. Clot area was analyzed using Image J software from NIH (Bethesda, MD, USA).

For data set [5], the system named is human platelets. Kind of data set: Annexin V-affinity assay, human platelets. As for the experimental part:
Mouse and human washed platelets (1×10^8/ml) were pre-incubated with different concentrations of ML265 ([…]). Washed platelets activated with thrombin (0.5 U/ml)+convulxin (100 ng/ml) were used as a positive control. The samples were added to 1× Annexin V-binding buffer (BD Biosciences). Following this, annexin V-FITC antibody was added to each sample, gently mixed, and incubated at room temperature for 15 minutes in the dark. After incubation, 1× Annexin-binding buffer was added to each tube and analyzed by a Becton Dickinson FACSCalibur flow cytometer.

In data set [6] the test system is mouse whole blood. Briefly: Bioflux flow chamber assay, mouse whole blood on collagen. The conditions noted are these: ML265 150 μM. Here is the method: In vitro thrombosis assays were performed using BioFlux™ 200 (Fluxion Biosciences, USA) microfluidics flow chamber (Nayak et al., 2018). The channels were coated with Type I collagen (100 μg/ml) for one hour at room temperature and then blocked with 0.5% BSA for 30 minutes. Platelets were isolated from citrated whole blood as described above, washed, labeled with the fluorescent dye (calcein AM; 2 μM) and were reconstituted back with PPP and remaining blood containing leukocytes and RBC. The whole blood pretreated with ML265 or vehicle (DMSO) was perfused over the collagen-coated plate at shear stress 1500 s^−1 for 5 minutes. Experiments were performed in triplicates using whole blood from human and mice. The fluorescently labeled platelets/thrombi on the collagen-coated surface were analyzed using ImageJ software from NIH (Bethesda, MD, USA).

Data set [7] has as its system human platelets. Briefly: Thromboxane (TxB2) assay, human platelets. The conditions noted are these: convulxin-stimulated human platelets pre-treated with ML265. Here is the method:
The TxB2 assay was done. Briefly, PRP or washed platelets (2×10^8 platelets/mL) was stimulated with convulxin or thrombin for 3 minutes utilizing an aggregometer, and the reaction was stopped by quickly freezing the sample in a dry ice-methanol bath. Before performing the TXB2 measurement assay, samples were thawed and centrifuged at 15,000 g for 3 minutes. The supernatants were diluted 1:50 with assay buffer and levels of TxB2 (a stable metabolite of TxA2) were determined in triplicate using an immunoassay kit (Abcam Thromboxane B2 enzyme-linked immunosorbent assay kit) according to the manufacturer's instructions.

The test system of data set [8] is human platelets. Briefly: Glucose uptake assay, human platelets. The conditions noted are these: human platelets stimulated with convulxin or thrombin; ML265 pre-treated (50 and 100 μM). As for the experimental part:
Glucose uptake was determined in activated versus non-activated platelets using 10 mM ^14C-2-deoxy-glucose. Washed platelets (2×10^8/mL) treated with vehicle (DMSO) or ML265 (50 and 100 μM) were incubated in 1× Tyrode buffer and stimulated with convulxin or thrombin for 10 minutes, placed on ice and then centrifuged at 4000 rpm for 5 minutes. The pellets were washed with cold 1×PBS and solubilized in 1N NAOH. Radioactive counts were determined using a Perkin Elmer TriCarb 2800TR liquid scintillation counter.

Data set [9] has as its system PI3 kinase-mediated Akt/GSK3β signaling. Kind of data set: Western blot of Akt/GSK3β phosphorylation, human platelets. The conditions noted are these: convulxin- or thrombin-mediated, ML265 50 and 100 μM. As for the experimental part: (§2) Platelet proteins were separated on 4-20% SDS-PAGE (sodium dodecyl sulfate-polyacrylamide gel electrophoresis) gradient gels and electrophoretic transferred to PVDF (polyvinylidene fluoride) membrane by using Bio-Rad western blotting system. For PKM2 dimer and tetramer study 6% native gels are used. Membranes were blocked with 5% BSA or skimmed milk in 10 mM Tris-HCl, 150 mM NaCl, pH 8.0 (TBS) containing 0.05% Tween-20 for one hour at room temperature. Blots were incubated for overnight with primary antibody, followed by horseradish peroxidase-labeled secondary antibody for one hour. Blots were developed using enhanced chemiluminescence and quantified using Image J software from NIH (Bethesda, MD, USA).
Background: A western blot detects proteins with antibodies after separation by electrophoresis.

Data set [10] shares this test system. Briefly: Western blot of Akt/GSK3β phosphorylation, mouse platelets. The conditions noted are these: murine platelets, convulxin or thrombin mediated, ML265 50 and 100 μM. Here is the method:
as §2

Each structure is given as a SMILES string.

Take `Cn1c2cc([S+](C)[O-])sc2c2cnn(Cc3cccc(N)c3)c(=O)c21` (stereo not drawn) [ML265, 6-[(3-aminophenyl)methyl]-4,6-dihydro-4-methyl-2-(methylsulfinyl)-5H-thieno[2′,3′:4,5]pyrrolo[2,3-d]pyridazine-5-one]: the “dense-granule secretion (ATP release)” value in data set [1] is on record as “significant decrease”. The stimulus-dependent platelet aggregation result in data set [2] is “reduced”. The lactate production entry in data set [3] is given as “significantly decreased”. The clot retraction result in data set [4] is given as “significant decrease”. Moreover, in data set [5], the “concentration not inducing phosphatidyl serine surface expression (annexin V)” value is at most 300 µM. Also, the “apoptosis in resting platelets (Annexin V binding)” value in [5] (increasing concentrations of ML265) is “does not induce”. Further, the “thrombus growth rate vs vehicle control” value in data set [6] (collagen, 1500 s-1) was “marked reduction”. In addition, the “percent of the area covered by platelets vs vehicle control” value in [6] (collagen, 1500 s-1, 5 minutes) is on record as “marked reduction”. The “rate of thrombus growth (slope over time)” value in [6] (vehicle slope 236.1) worked out at 61.65. Also, the “levels of TxB2 (stable metabolite of TxA2)” value in data set [7] is listed as “reduced”. In data set [8], the glucose uptake entry was “significantly decreased”. Besides, the Akt phosphorylation result in data set [9] is recorded as “down-regulated”; in data set [10] it was “attenuated”. Besides, the GSK3β phosphorylation result in data set [9] was “down-regulated”; in [10], “attenuated”.

Values taken from patent US12337005B2, “Methods of treating thrombosis” (UNIVERSITY OF IOWA RESEARCH FOUNDATION, priority 2020, dated 2025).
